According to ChEMBL document CHEMBL1201862, “PubChem BioAssay data set” (2004):
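48-hour exposure; five concentrations; linearly interpolated endpoints. Here, GI50 denotes the concentration required for 50% inhibition of growth.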 Calls of active or inactive are those of the source. Rule as the data show it: active = GI50 up to about 1.1 µM and inactive = higher.

Key:
Assay in all cases: NCI-60 cell line screen, 48 h
HCT-15 = tested on: HCT-15
Hs-578T = tested on: Hs-578T
NCI-H23 = tested on: NCI-H23
NCI/ADR-RES = tested on: NCI/ADR-RES
OVCAR-8 = tested on: OVCAR-8
UACC-257 = tested on: UACC-257
OVCAR-4 = tested on: OVCAR-4
MOLT-4 = tested on: MOLT-4
BT-549 = tested on: BT-549
SW-620 = tested on: SW-620
SF-295 = tested on: SF-295
SNB-75 = tested on: SNB-75
SF-268 = tested on: SF-268
ACHN = tested on: ACHN
UO-31 = tested on: UO-31
IGROV-1 = tested on: IGROV-1
DU-145 = tested on: DU-145
EKVX = tested on: EKVX
SK-OV-3 = tested on: SK-OV-3
M14 = tested on: M14
HCT-116 = tested on: HCT-116
TK-10 = tested on: TK-10
A549 = tested on: A549
SN12C = tested on: SN12C
SNB-19 = tested on: SNB-19
Malme-3M = tested on: Malme-3M
MDA-MB-231 = tested on: MDA-MB-231
SK-MEL-28 = tested on: SK-MEL-28
HT-29 = tested on: HT-29
PC-3 = tested on: PC-3
NCI-H460 = tested on: NCI-H460
OVCAR-5 = tested on: OVCAR-5
RPMI-8226 = tested on: RPMI-8226
NCI-H226 = tested on: NCI-H226
SK-MEL-2 = tested on: SK-MEL-2
HL-60 = tested on: HL-60
CAKI-1 = tested on: CAKI-1
SF-539 = tested on: SF-539
NCI-H522 = tested on: NCI-H522
SK-MEL-5 = tested on: SK-MEL-5
K562 = tested on: K562
COLO 205 = tested on: COLO 205
MDA-N = tested on: MDA-N
786-0 = tested on: 786-0
CCRF-CEM = tested on: CCRF-CEM
MDA-MB-435 = tested on: MDA-MB-435
T47D = tested on: T47D
A498 = tested on: A498
U-251 = tested on: U-251
SR = tested on: SR
RXF 393 = tested on: RXF 393
KM12 = tested on: KM12
UACC-62 = tested on: UACC-62
HOP-92 = tested on: HOP-92
LOX IMVI = tested on: LOX IMVI
HOP-62 = tested on: HOP-62
OVCAR-3 = tested on: OVCAR-3

Cc1ccnc2nc(N)ccc12
GI50 (HCT-15): > 100 µM | GI50 (Hs-578T): > 100 µM (inactive) | GI50 (NCI-H23): > 100 µM (inactive) | GI50 (NCI/ADR-RES): > 100 µM (inactive) | GI50 (OVCAR-8): > 100 µM (inactive) | GI50 (UACC-257): > 100 µM (inactive) | GI50 (OVCAR-4): > 100 µM (inactive) | GI50 (MOLT-4): > 100 µM (inactive) | GI50 (BT-549): > 100 µM (inactive) | GI50 (SW-620): > 100 µM (inactive) | GI50 (SF-295): > 100 µM (inactive) | GI50 (SNB-75): 66.7 µM (inactive) | GI50 (SF-268): > 100 µM (inactive) | GI50 (ACHN): > 100 µM (inactive) | GI50 (UO-31): > 100 µM (inactive) | GI50 (IGROV-1): > 100 µM (inactive) | GI50 (DU-145): > 100 µM (inactive) | GI50 (EKVX): > 100 µM (inactive) | GI50 (SK-OV-3): > 100 µM (inactive) | GI50 (M14): > 100 µM (inactive) | GI50 (HCT-116): > 100 µM (inactive) | GI50 (TK-10): > 100 µM (inactive) | GI50 (A549): > 100 µM (inactive) | GI50 (SN12C): > 100 µM (inactive) | GI50 (SNB-19): > 100 µM (inactive) | GI50 (Malme-3M): > 100 µM (inactive) | GI50 (MDA-MB-231): > 100 µM (inactive) | GI50 (SK-MEL-28): > 100 µM (inactive) | GI50 (HT-29): > 100 µM (inactive) | GI50 (PC-3): > 100 µM (inactive) | GI50 (NCI-H460): > 100 µM (inactive) | GI50 (OVCAR-5): > 100 µM (inactive) | GI50 (RPMI-8226): > 100 µM (inactive) | GI50 (NCI-H226): > 100 µM (inactive) | GI50 (SK-MEL-2): > 100 µM (inactive) | GI50 (HL-60): > 100 µM (inactive) | GI50 (CAKI-1): > 100 µM (inactive) | GI50 (SF-539): > 100 µM (inactive) | GI50 (NCI-H522): > 100 µM (inactive) | GI50 (SK-MEL-5): > 100 µM (inactive) | GI50 (K562): > 100 µM (inactive) | GI50 (COLO 205): > 100 µM (inactive) | GI50 (MDA-N): > 100 µM (inactive) | GI50 (786-0): > 100 µM (inactive) | GI50 (CCRF-CEM): > 100 µM (inactive) | GI50 (MDA-MB-435): > 100 µM (inactive) | GI50 (T47D): > 100 µM (inactive) | GI50 (A498): > 100 µM (inactive) | GI50 (U-251): > 100 µM (inactive) | GI50 (SR): > 100 µM (inactive) | GI50 (RXF 393): > 100 µM (inactive) | GI50 (KM12): > 100 µM (inactive) | GI50 (UACC-62): > 100 µM (inactive)

O=C1c2ccccc2-c2ccc(/N=N/c3c(O)ccc4ccccc34)cc21
GI50 (HCT-15): > 100 µM | GI50 (Hs-578T): > 100 µM (inactive) | GI50 (NCI-H23): > 100 µM (inactive) | GI50 (HOP-92): > 100 µM (inactive) | GI50 (NCI/ADR-RES): > 100 µM (inactive) | GI50 (OVCAR-8): > 100 µM (inactive) | GI50 (UACC-257): > 100 µM (inactive) | GI50 (OVCAR-4): > 100 µM (inactive) | GI50 (MOLT-4): 41.8 µM (inactive) | GI50 (BT-549): > 100 µM (inactive) | GI50 (LOX IMVI): > 100 µM (inactive) | GI50 (SW-620): > 100 µM (inactive) | GI50 (SF-295): > 100 µM (inactive) | GI50 (SNB-75): > 100 µM (inactive) | GI50 (SF-268): > 100 µM (inactive) | GI50 (UO-31): > 100 µM (inactive) | GI50 (IGROV-1): > 100 µM (inactive) | GI50 (DU-145): > 100 µM (inactive) | GI50 (HOP-62): > 100 µM (inactive) | GI50 (EKVX): > 100 µM (inactive) | GI50 (SK-OV-3): > 100 µM (inactive) | GI50 (M14): > 100 µM (inactive) | GI50 (HCT-116): > 100 µM (inactive) | GI50 (TK-10): > 100 µM (inactive) | GI50 (A549): > 100 µM (inactive) | GI50 (SN12C): > 100 µM (inactive) | GI50 (SNB-19): > 100 µM (inactive) | GI50 (Malme-3M): 19.7 µM (inactive) | GI50 (MDA-MB-231): > 100 µM (inactive) | GI50 (SK-MEL-28): > 100 µM (inactive) | GI50 (HT-29): > 100 µM (inactive) | GI50 (PC-3): > 100 µM (inactive) | GI50 (OVCAR-5): > 100 µM (inactive) | GI50 (RPMI-8226): > 100 µM (inactive) | GI50 (NCI-H226): > 100 µM (inactive) | GI50 (SK-MEL-2): > 100 µM (inactive) | GI50 (CAKI-1): > 100 µM (inactive) | GI50 (OVCAR-3): > 100 µM (inactive) | GI50 (NCI-H522): > 100 µM (inactive) | GI50 (SK-MEL-5): > 100 µM (inactive) | GI50 (K562): > 100 µM (inactive) | GI50 (COLO 205): > 100 µM (inactive) | GI50 (MDA-N): > 100 µM (inactive) | GI50 (786-0): > 100 µM (inactive) | GI50 (CCRF-CEM): 15.4 µM (inactive) | GI50 (MDA-MB-435): 33.6 µM (inactive) | GI50 (T47D): > 100 µM (inactive) | GI50 (A498): > 100 µM (inactive) | GI50 (U-251): > 100 µM (inactive) | GI50 (RXF 393): > 100 µM (inactive) | GI50 (KM12): > 100 µM (inactive) | GI50 (UACC-62): > 100 µM (inactive)
